# Patent US11534457B2, “Use of dextran sulfate” (priority 2017, dated 2022)
# Tested on: severe traumatic brain injury (sTBI)
# Experiment: sTBI in rats, brain gene expression arrays and pathway analysis (Example 9)
# Format: in vivo, Male Wistar rats
# Set-up: key to z score, canonical pathway Dendritic Cell Maturation / z score, canonical pathway Adrenomedullin Signaling pathway / z score, canonical pathway Endothelin-1 Signaling / effect on canonical pathway Adrenomedullin Signaling pathway / effect on canonical pathway Endothelin-1 Signaling / effect on canonical pathway Dendritic Cell Maturation / Ingenuity canonical pathway Adrenomedullin signaling pathway, z score / Ingenuity canonical pathway FLT3 Signaling in Hematopoietic Progenitor Cells, z score / Ingenuity canonical pathway Opioid Signaling Pathway, z score / Ingenuity canonical pathway VDR/RXR Activation, z score / Ingenuity canonical pathway Neuropathic Pain Signaling In Dorsal Horn Neurons, z score / Ingenuity canonical pathway STAT3 Pathway, z score / Ingenuity canonical pathway IL-1 Signaling, z score / Ingenuity canonical pathway IL-6 Signaling, z score / Ingenuity canonical pathway NF-κB Signaling, z score / Ingenuity canonical pathway Role of NFAT in Cardiac Hypertrophy, z score / Ingenuity canonical pathway PPARα/RXRα Activation, z score: *: ambiguous effect
# Procedure: The experimental protocol used in this study was approved by the Ethical Committee of the Catholic University of Rome, according to international standards and guidelines for animal care. Male Wistar rats of 300-350 g body weight were fed with standard laboratory diet and water ad libitum in a controlled environment. As the anesthetic mixture, the animals received 35 mg/kg b.w. ketamine and 0.25 mg/kg body weight midazolam by i.p. injection. Severe traumatic brain injury (sTBI) was induced by dropping a 450 g weight from 2 m height on to the rat head that had been protected by a metal disk previously fixed on the skull, according to the “weight drop” impact acceleration model (Marmarou et al., A new model of diffuse brain injury in rats. Part I: Pathophysiology and biomechanics. J Neurosurg. 1994; 80: 291-300). […] At the end of each period of treatment, rats were anesthetized again and then immediately sacrificed.
# LMW-DS (Tikomed AB) was provided at a stock concentration of 20 mg/ml and was kept in a temperature-monitored refrigerator at 4° C. LMW-DS aliquots were diluted to the appropriate dosing concentration in sterile saline prior to delivery of a single subcutaneous injection.
# Three doses of LMW-DS were administered subcutaneously 30 minutes post-TBI. The animals were sacrificed at 2 days post-TBI. The animals were divided into the following subgroups:
# Three doses of LMW-DS were administered subcutaneously 30 minutes post-TBI. The animals were sacrificed at 7 days post-TBI. The animals were divided into the following subgroups:
# An in vivo craniectomy was performed on all animals during anesthesia. After carefully removing the rat's skull, the brain was exposed and removed with a surgical spatula and quickly dropped in RNALater and preserved at 4° C. for further processing.
# RNA extraction and array processing was carried out by SourceBioscience. The arrays used were the Agilent Rat expression arrays.
# Statistical analysis was carried out using the Metaboanalyst software package. Gene expression changes of 10% with a p<0.05 were regarded as significant.
# Pathway analysis of the differentially regulated genes was carried out using the Ingenuity pathway analysis package. The analysis was performed with special reference to pathways and molecular processes and diseases associated with neurodegenerative disease, including dementia, Alzheimer's disease, ALS, TBI and stroke, and with scarring and fibrosis, including glaucoma and normal pressure hydrocephalus (NPH) after subarachnoid haemorrhage.
# [1] = TBI + 5 mg/kg LMW-DS, after 7 days, TBI: Inhibited
# [2] = TBI + 15 mg/kg LMW-DS, 2 days after TBI
# [3] = TBI + 15 mg/kg LMW-DS, 7 days after TBI
# [4] = TBI + 15 mg/kg LMW-DS, 7 days after TBI, relative to control
# [5] = TBI + 15 mg/kg LMW-DS, after 7 days, TBI: Activated
# [6] = TBI + 15 mg/kg LMW-DS, after 7 days, TBI: Inhibited
# [7] = TBI + 15 mg/kg repeat dose LMW-DS, after 7 days, TBI: Activated
# [8] = TBI + 15 mg/kg repeat dose LMW-DS, after 7 days, TBI: Inhibited
substance,measurement,setting,value
low molecular weight dextran sulfate [LMW-DS],Diseases or functions annotation: Organization of cytoskeleton,[1],Activated
same,Diseases or functions annotation: Pelvic tumor,[1],Activated
same,Diseases or functions annotation: Proliferation of connective tissue cells,[1],Inhibited
same,Diseases or functions annotation: Proliferation of epithelial cells,[1],Inhibited
same,Diseases or functions annotation: Quantity of cells,[1],Activated
same,Diseases or functions annotation: Quantity of connective tissue,[1],Activated
same,Diseases or functions annotation: Secretion of molecule,[1],Activated
same,Diseases or functions annotation: Size of body,[1],Activated
same,Diseases or functions annotation: Solid tumor,[1],Activated
same,Diseases or functions annotation: Synthesis of lipid,[1],Activated
same,Diseases or functions annotation: Transcription,[1],Activated
same,Diseases or functions annotation: Transcription of RNA,[1],Activated
same,Diseases or functions annotation: Transport of molecule,[1],Activated
same,Diseases or functions annotation: Tumorigenesis of tissue,[1],Inhibited
same,Diseases or functions annotation: Vasculogenesis,[1],Activated
same,Diseases or functions annotation: Apoptosis,[2],Inhibited
same,Diseases or functions annotation: Apoptosis of tumor cell lines,[2],Activated
same,Diseases or functions annotation: Behavior,[2],Inhibited
same,Diseases or functions annotation: Cell death,[2],Inhibited
same,Diseases or functions annotation: Necrosis,[2],Inhibited
same,Diseases or functions annotation: Quantity of blood cells,[2],Inhibited
same,Diseases or functions annotation: Quantity of cells,[2],Inhibited
same,Diseases or functions annotation: Quantity of lymphocytes,[2],Inhibited
same,Ingenuity canonical pathway: Endothelin-1 Signaling,[3],Activated
same,Ingenuity canonical pathway: Phospholipase C Signaling,[3],Activated
same,Ingenuity canonical pathway: cAMP-mediated signaling,[3],Activated
same,z score: Abdominal neoplasm,[3],−0.272
same,z score: Apoptosis,[3],−0.256
same,z score: Apoptosis of tumor cell lines,[3],0.783
same,z score: Cancer,[3],1.705
same,z score: Carcinoma,[3],1.067
same,z score: Cell death,[3],−1.269
same,z score: Cell death of tumor cell lines,[3],0.178
same,z score: Cell movement of myeloid cells,[3],1.197
same,z score: Development of connective tissue cells,[3],0.766
same,z score: Development of malignant tumor,[3],−0.774
same,z score: Differentiation of bone cells,[3],0.903
same,z score: Epithelial neoplasm,[3],0.775
same,z score: Extracranial solid tumor,[3],1.474
same,z score: Frequency of tumor,[3],−1.519
same,z score: Genitourinary tumor,[3],1.746
same,z score: Incidence of tumor,[3],−0.865
same,z score: Leukocyte migration,[3],2.365
same,z score: Necrosis,[3],0.213
same,z score: Non-melanoma solid tumor,[3],1.121
same,z score: Quantity of Ca^2+,[3],0.224
same,z score: Quantity of cells,[3],0.991
same,z score: Solid tumor,[3],0.992
same,z score: Transcription,[3],0.747
same,z score: Transcription of RNA,[3],0.517
same,z score: Tumorigenesis of epithelial neoplasm,[3],0.152
same,z score: Tumorigenesis of tissue,[3],0.918
same,"Ingenuity canonical pathway Adrenomedullin signaling pathway, z score",[4],*
same,"Ingenuity canonical pathway Endothelin-1 Signaling, z score",[4],1
same,"Ingenuity canonical pathway Phospholipase C Signaling, z score",[4],2
same,"Ingenuity canonical pathway cAMP-mediated signaling, z score",[4],1
same,Diseases or functions annotation: Apoptosis,[5],Inhibited
same,Diseases or functions annotation: Apoptosis of tumor cell lines,[5],Activated
same,Diseases or functions annotation: Cell death,[5],Inhibited
same,Diseases or functions annotation: Cell death of tumor cell lines,[5],Activated
same,Diseases or functions annotation: Development of malignant tumor,[5],Inhibited
same,Diseases or functions annotation: Extracranial solid tumor,[5],Activated
same,Diseases or functions annotation: Frequency of tumor,[5],Inhibited
same,Diseases or functions annotation: Incidence of tumor,[5],Inhibited
same,Diseases or functions annotation: Necrosis,[5],Activated
same,Diseases or functions annotation: Abdominal neoplasm,[6],Inhibited
same,Diseases or functions annotation: Cancer,[6],Activated
same,Diseases or functions annotation: Carcinoma,[6],Activated
same,Diseases or functions annotation: Cell movement of myeloid cells,[6],Activated
same,Diseases or functions annotation: Development of carcinoma,[6],Activated
same,Diseases or functions annotation: Development of connective tissue cells,[6],Activated
same,Diseases or functions annotation: Differentiation of bone cells,[6],Activated
same,Diseases or functions annotation: Epithelial neoplasm,[6],Activated
same,Diseases or functions annotation: Genitourinary tumor,[6],Activated
same,Diseases or functions annotation: Leukocyte migration,[6],Activated
same,Diseases or functions annotation: Non-melanoma solid tumor,[6],Activated
same,Diseases or functions annotation: Quantity of cells,[6],Activated
same,Diseases or functions annotation: Solid tumor,[6],Activated
same,Diseases or functions annotation: Transcription,[6],Activated
same,Diseases or functions annotation: Transcription of RNA,[6],Activated
same,Diseases or functions annotation: Tumorigenesis of epithelial neoplasm,[6],Activated
same,Diseases or functions annotation: Tumorigenesis of tissue,[6],Activated
same,Diseases or functions annotation: Digestive organ tumor,[7],Inhibited
same,Diseases or functions annotation: Extracranial solid tumor,[7],Activated
same,Diseases or functions annotation: Gastrointestinal tumor,[7],Inhibited
same,Diseases or functions annotation: Hematologic cancer,[7],Inhibited
same,Diseases or functions annotation: Hematopoietic neoplasm,[7],Inhibited
same,Diseases or functions annotation: Obesity,[7],Activated
same,Diseases or functions annotation: Seizure disorder,[7],Activated
same,Diseases or functions annotation: Skin lesion,[7],Activated
same,Diseases or functions annotation: Abdominal cancer,[8],Inhibited
same,Diseases or functions annotation: Abdominal neoplasm,[8],Inhibited
same,Diseases or functions annotation: Adenocarcinoma,[8],Inhibited
same,Diseases or functions annotation: Branching of cells,[8],Activated
same,Diseases or functions annotation: Carcinoma,[8],Inhibited
same,Diseases or functions annotation: Cell movement,[8],Activated
same,Diseases or functions annotation: Cell-cell contact,[8],Activated
same,Diseases or functions annotation: Concentration of hormone,[8],Activated
same,Diseases or functions annotation: Concentration of lipid,[8],Inhibited
same,Diseases or functions annotation: Dendritic growth/branching,[8],Inhibited
same,Diseases or functions annotation: Development of connective tissue cells,[8],Inhibited
same,Diseases or functions annotation: Development of gap junctions,[8],Activated
same,Diseases or functions annotation: Development of neurons,[8],Activated
same,Diseases or functions annotation: Developmental process of synapse,[8],Activated
